From publication PMC12081876, “Identification of PTGR2 inhibitors as a new therapeutic strategy for diabetes and obesity” (EMBO Molecular Medicine, 2025)
“And” between values parts separate entries of the source, which are not always exact repeats. Identical values can stand only once. Values belong to the compound of their own block, whether it stands above or below them.

Assays:
mPPARγ C313A = biological target: T1, mPPARγ C313A (Mus musculus, UniProt P37238, C313A); assay: PPRE reporter assay in HEK293T cells, C313A mutant mPPARγ; format: cell-based, murine; design: key to PPRE reporter activity, Fig 1M replicates: luciferase activity normalized to TK reporter signal; conditions: for PPRE reporter activity, Fig 1M replicates: PPARg C313A
T1 construct: host or cells: HEK293T
T1 sequence (P37238 1-505 C313A): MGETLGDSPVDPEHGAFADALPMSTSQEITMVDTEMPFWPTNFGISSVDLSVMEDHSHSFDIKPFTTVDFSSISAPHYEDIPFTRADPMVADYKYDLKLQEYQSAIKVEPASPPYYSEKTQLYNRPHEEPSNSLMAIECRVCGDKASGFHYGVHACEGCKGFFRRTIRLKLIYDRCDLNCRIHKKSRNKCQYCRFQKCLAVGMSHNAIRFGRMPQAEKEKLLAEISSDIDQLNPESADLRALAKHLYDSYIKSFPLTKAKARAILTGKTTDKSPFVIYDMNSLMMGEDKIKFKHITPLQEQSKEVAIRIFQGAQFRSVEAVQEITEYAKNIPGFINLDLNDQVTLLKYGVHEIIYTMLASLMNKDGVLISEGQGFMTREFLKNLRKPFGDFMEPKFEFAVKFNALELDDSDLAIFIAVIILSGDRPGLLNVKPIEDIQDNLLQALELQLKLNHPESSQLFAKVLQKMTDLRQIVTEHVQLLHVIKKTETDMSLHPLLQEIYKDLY
Method: For PPRE reporter assay, HEK293T cells were seeded in 24-well plates at 1 × 10^5 cells/well. […] The luciferase activity was measured by Luc-Pair™ Duo-Luciferase HS Assay Kit (cat. no. LF600, Promega, USA) and normalized to the TK reporter signal.

[1] = tested on: HFHSD-fed obese C57BL6/J mice; assay: Body composition (fat mass, lean mass, free water, total water); format: in vivo, mouse; design: Fat mass (Figure 5O) / lean mass (Figure 5O) / Free fluid (Figure 5O): unit not given beside the values; conditions: for body composition: fat mass / fluid retention (body composition): vs vehicle
hPTGR2 = hPTGR2 (Homo sapiens, UniProt Q8N8N7); assay: Enzyme kinetics (Lineweaver–Burk) of hPTGR2 with 15-keto-PGE2; format: biochemical; design: made in house
3T3-L1 adipocytes = assay: Intracellular 15-keto-PGE2 content of 3T3-L1 cells (LC-MS/MS); format: cell-based, mouse
Method: The lysate was centrifuged at 300 × g for 5 min to remove cellular debris. The supernatant was transferred to a new tube. The C18 SPE cartridge was sequentially activated with 2 mL methanol and 2 mL ddH2O. The lower-layer sample was transferred to the C18 SPE cartridge. Once the lysate passed the cartridge, the SPE cartridge was washed with 2 mL 15% methanol and 5 mL ddH2O. The sample was then eluted with 5 mL HPLC-degree methanol and aliquoted into new 2-mL tubes. The elute was air-dried using a SpeedVac system and stored at −80 °C. The dried samples were reconstituted with 60 μL methanol before analysis.

[2] = Pharmacokinetic study in male ICR mice; format: in vivo, mouse; conditions: plasma
Method: Male ICR mice weighing 25–30 g each were obtained from BioLASCO, Taiwan Co., Ltd., Ilan, Taiwan for pharmacokinetic study. Briefly, a single dose of BRRPT245 was given intravenously at 2 mg/kg or oral gavage at 10 mg/kg to the mice. Blood samples were taken at 0 (immediately before dosing), 2, 5 (iv only), 15 and 30 min and at 1, 2, 4, 6, 8, 16, and 24 h after administration. The T1/2 (half-life), Cl (clearance), Vss (steady-state volume of distribution), AUC (area under curve), Cmax (maximum plasma concentration), Tmax (time taken to reach Cmax), and F(bioavailability%) were calculated according to the published formula (Urso et al, [2002]).
The HPLC system consisted of an Agilent 1200 series LC System with BinPump (Waldbronn, Germany) and an Agilent Eclipse XDB C8 (3.0 × 150 mm, 5 µm) interfaced to a Sciex API 4000 tandem mass spectrometer. Mobile phase consisted of 10 mM ammonium acetate containing 0.1% of formic acid (Solvent A) and acetonitrile (Solvent B). For determination of BPTPT0245, the following stepwise gradient system was used: 85% A (0–0.5 min), 85% A to 15% A (0.6–3.0 min), 5% A (3.1–5.0 min). Total running time was 5 min. The retention times of BPRPT0245 and BPR0L187 (internal standard) (IS) were 2.21 and 2.42 min, respectively. Data acquisition was via selected ion monitoring (SIM). The collision energy was +37 V for the analyte and +38.5 V for IS, respectively. The ions monitored for BPRPT0245 were m/z 447/189 and m/z 357/195, respectively. […] Total running time was 6 min. […] Data acquisition was via SIM.
To prepare the BPRPT0245 plasma samples, 50 µL of the plasma sample mixed with 100 µL acetonitrile containing […] of BPR0L187. The mixture was vortexed for 30 s and then centrifuged at 15,000 rpm for 20 min in an Eppendorf Model 5417c centrifuge at room temperature. An aliquot (5 µL) of the mixture was then injected onto to LC-MS/MS.

[3] = Serum ALT, total bilirubin, BUN and creatinine; format: in vivo, mouse; conditions: 100 mg/kg/day, vs vehicle
[4] = tested on: HFHSD-fed obese C57BL6/J mice; assay: Bone mineral density of femur (micro CT); format: in vivo, mouse
[5] = 40 mg/kg/day ip, 3 weeks, HFHSD-fed mice
[6] = 40 mg/kg/day ip, HFHSD-fed mice, listed as 15kPGE2
[7] = 100 mg/kg/day oral, HFHSD-fed mice

Sequence of hPTGR2 (Q8N8N7 whole entry): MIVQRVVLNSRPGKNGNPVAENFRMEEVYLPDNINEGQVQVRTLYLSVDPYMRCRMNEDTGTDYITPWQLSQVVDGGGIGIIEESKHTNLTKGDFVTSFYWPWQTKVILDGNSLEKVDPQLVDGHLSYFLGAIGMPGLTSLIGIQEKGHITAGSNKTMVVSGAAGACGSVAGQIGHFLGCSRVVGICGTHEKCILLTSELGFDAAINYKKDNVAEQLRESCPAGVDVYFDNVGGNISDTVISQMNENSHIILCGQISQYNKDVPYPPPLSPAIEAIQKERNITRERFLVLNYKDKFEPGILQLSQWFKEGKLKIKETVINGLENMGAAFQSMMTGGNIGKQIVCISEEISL

PPRE reporter activity, Fig 1M replicates (mPPARγ C313A; 1314dh-15kPGE2 5uM): 1.0835 and 0.6291 and 0.9127
PPRE reporter activity, Fig 1M replicates (mPPARγ C313A; 1314dh-15kPGE2 10uM): 0.8254 and 0.8511 and 0.9733
Structure (SMILES): CCCCCC(=O)CC[C@H]1[C@H](O)CC(=O)[C@@H]1C/C=C\CCCC(=O)O [13,14-dihydro-15-keto-PGE2]

fluid retention (body composition) [1, 5]: without fluid retention
Km (hPTGR2; read-out: Km between 15-keto-PGE2 and hPTGR2, without BPRPT0245): 29.1 ± 0.77 µM
PPRE reporter activity, Fig 1M replicates (mPPARγ C313A; 15kPGE2 1uM): 1.1721 and 1.0341 and 1.1068
PPRE reporter activity, Fig 1M replicates (mPPARγ C313A; 15kPGE2 5uM): 0.9678 and 0.853 and 0.9258
PPRE reporter activity, Fig 1M replicates (mPPARγ C313A; 15kPGE2 10uM): 0.6267 and 0.6796 and 0.8917
PPRE reporter activity, mutant mPPARγ (C313A) (mPPARγ C313A; HEK293T): abolished
Structure (SMILES): CCCCCC(=O)/C=C/[C@H]1[C@H](O)CC(=O)[C@@H]1C/C=C\CCCC(=O)O [15-keto-PGE2, 15-keto-prostaglandin E2]
body composition: fat mass [1, 5]: reduced fat mass
fat mass, Fig 2K, per mouse [1, 6]: 5.32 and 2.67 and 2.477 and 3.3 and 3.197 and 3.02 and 3.75 and 4.29 and 2.763 and 2.153 and 4.333 and 4.837 and 5.383 and 6.203
free water, Fig 2K, per mouse [1, 6]: 2.353 and 2.46 and 2.333 and 2.08 and 2.14 and 2.517 and 2.187 and 2.62 and 2.42 and 2.197 and 2.23 and 2.307 and 2.467
lean mass, Fig 2K, per mouse [1, 6]: 21.65 and 22.52 and 23.3767 and 19.74 and 20.2767 and 20.98 and 21.1733 and 22.3667 and 21.9633 and 21.94 and 20.5267 and 22.2733 and 21.2733 and 21.61
total water, Fig 2K, per mouse ([1]; 40 mg/kg/day ip, HFHSD-fed mice, listed as 15kPGE2, in g (unit assumed)): 19.6733 and 20.4733 and 21.0367 and 17.8733 and 18.36 and 19.3 and 19.1267 and 20.5133 and 19.99 and 19.7467 and 18.65 and 20.1267 and 19.4833 and 19.7567
increase of intracellular 15-keto-PGE2 levels (3T3-L1 adipocytes; exogenously added 15-keto-PGE2 10–20 μM, 3T3-L1 adipocytes): 1.25 to 1.78 fold

Structure (SMILES): Cc1[nH]c2nc(C(C)N3CCN(c4ccccc4)CC3)nn2c(=O)c1Cc1ccc(F)cc1 (stereo not drawn) [BPRPT0245]
AUC(0-inf) ([2]; Mouse IV, dose 2 mg/kg): 480 ng·h/mL
clearance ([2]; Mouse IV, dose 2 mg/kg): 79.5 mL/min/kg
half-life ([2]; Mouse IV, dose 2 mg/kg): 2 h
Vd ([2]; Mouse IV, dose 2 mg/kg, read-out: Vss): 5 L/kg
AUC(0-inf) ([2]; Mouse PO, dose 10 mg/kg): 725 ng·h/mL
Cmax ([2]; Mouse PO, dose 10 mg/kg): 398 ng/mL
Tmax ([2]; Mouse PO, dose 10 mg/kg): 0.4 h
half-life ([2]; Mouse PO, dose 10 mg/kg): 2.5 h
bioavailability ([2]; Mouse PO, dose 10 mg/kg, read-out: F(%) bioavailability): 30.2%
serum ALT, total bilirubin, BUN and creatinine levels [3]: no differences
body composition: fat mass [1, 7]: marginally significantly reduced fat mass
fluid retention (body composition) [1, 7]: did not cause fluid retention
Fat mass (Figure 5O) ([1]; individual animals): 18.94 and 14.08 and 8.33 and 20.43 and 12.66 and 22.41 and 12.99 and 8.39 and 11.25 and 10.06
Free fluid (Figure 5O) ([1]; individual animals): 3.62 and 3.13 and 2.31 and 3.61 and 2.85 and 4.07 and 3.08 and 2.76 and 3.02 and 2.68
lean mass (Figure 5O) ([1]; individual animals): 26.38 and 24.44 and 20.16 and 22.44 and 28.07 and 22.14 and 23.04 and 23.87 and 21.38
Total water (Figure 5O) ([1]; individual animals, in g (unit assumed)): 24.73 and 22.68 and 18.44 and 23.16 and 20.8 and 26.52 and 20.79 and 21.19 and 22.12 and 19.78
Bone mineral density ([4]; 100 mg/kg/day oral, 26 weeks, vs vehicle): no difference
Figure 5T value (bone mineral density of femur), individual mice ([4]; individual values, BPRPT0245 group (Figure 5T)): 0.3548 and 0.3423 and 0.3795 and 0.3591 and 0.3711 and 0.3604 and 0.3411 and 0.3634 and 0.3483 and 0.3707
mode of inhibition (Lineweaver–Burk plot) (hPTGR2; BPRPT0245 50 nM): competitive hPTGR2 inhibitor
Lineweaver-Burk plot value, average (Figure 5H) (hPTGR2; BPRPT0245 50 nM, 15-keto-PGE2(um) 0.01): 0.05189
Lineweaver-Burk plot value, average (Figure 5H) (hPTGR2; BPRPT0245 50 nM, 15-keto-PGE2(um) 0.0142857): 0.06506
Lineweaver-Burk plot value, average (Figure 5H) (hPTGR2; BPRPT0245 50 nM, 15-keto-PGE2(um) 0.02): 0.06763
Lineweaver-Burk plot value, average (Figure 5H) (hPTGR2; BPRPT0245 50 nM, 15-keto-PGE2(um) 0.025): 0.07832
Lineweaver-Burk plot value, average (Figure 5H) (hPTGR2; BPRPT0245 50 nM, 15-keto-PGE2(um) 0.0333333): 0.1063
Lineweaver-Burk plot value, average (Figure 5H) (hPTGR2; BPRPT0245 50 nM, 15-keto-PGE2(um) 0.05): 0.1377
Lineweaver-Burk plot value, average (Figure 5H) (hPTGR2; BPRPT0245 50 nM, 15-keto-PGE2(um) 0.1): 0.2333
Vmax (change on addition of inhibitor) (hPTGR2; with BPRPT0245 50 nM): remained unchanged
intracellular 15-keto-PGE2 concentrations (3T3-L1 adipocytes; differentiated 3T3-L1 adipocytes treated with BPRPT0245): increased intracellular 15-keto-PGE2 concentrations in a dose-dependent manner
